Laboratory results from patent US20250332180A1, “CANNABINOIDS AND IL-15 ACTIVATE NK CELLS” (The Regents of the University of California, priority 2022, published 2025).

Columns and labels:
OSCCs [1] = test system: OSCCs
PL-12 tumor cells = experiment: Cell death assay (PI staining, flow cytometry); type: cell-based, human; details: 25-100 μM, 24-48 hours
IFN-γ secretion = IFN-γ secretion of immune cells in humanized BLT mice (ELISA, ELISpot); type: in vivo; details: hu-BLT mice
Method: (§1) Humanized BLT mice (hu-BLT; human-bone marrow/liver/thymus) were fed with, AJ2 (5×10^9 CFU/mice, every 2 days, Oral administration), WIN 55,212-2 (2 mg/kg, every 2 days, IP) and/or IL-15 (5 μg/mice, every 2 days, IP). After 3 weeks of treatment, immune cells were collected from peripheral blood, bone marrow and spleen, and CD3+ T cells were isolated from splenocytes with EasySep™ Human CD3 positive selection kit II (StemCell Tech.). PBMCs (0.5×10^6 cells) obtained from the peripheral blood were treated with IL-2 (1000 U/ml) and/or anti-CD16 antibody (BioLegend) (3 μg/ml) for 3 days, after which the cells were counted and different numbers of E:T ratios were used for the assessment of cytotoxicity using 4-hr Chromium release assay (FIG. 1A and FIG. 1B). The percentage specific cytotoxicity was calculated using the following formula (% cytotoxicity=(Experimental cpm/spontaneous cpm)/(total cpm−spontaneous cpm)) and the lytic unit 30 (Lu30/10^6) was calculated by using the inverse of the number of effector cells needed to lyse 30% of tumor target cells×100. Killing per % NK cells was determined by dividing the total Lytic unit 30 by the percentage of NK cells in each sample (FIG. 1A and FIG. 1B). PBMCs (0.5×10^6 cells) obtained from the blood were treated with IL-2 (1000 U/ml) and/or anti-CD16 antibody (BioLegend) (3 μg/ml) for 24 hours, after which the supernatants were collected to measure IFN-g secretion using ELISA (BioLegend, San Diego) (FIG. 1C). ELISpot was used to determine the IFN-γ spots in PBMC (FIG. 1D), bone marrow (FIG. 1E), spleen (FIG. 1F) and CD3+ T cells (FIG. 1G).
Humanized BLT mice (hu-BLT; human-bone marrow/liver/thymus) were fed with, AJ2 (5×10^9 CFU/mice, every 2 days, Oral administration), WIN 55,212-2 (2 mg/kg, every 2 days, IP) and/or IL-15 (5 μg/mice, every 2 days, IP). After 3 weeks of treatment, immune cells were collected from peripheral blood, bone marrow and spleen, and CD3+ T cells were isolated from splenocytes with EasySep™ Human CD3 positive selection kit II (StemCell Tech.). PBMCs (0.5×10^6 cells) obtained from the peripheral blood were treated with IL-2 (1000 U/ml) and/or anti-CD16 antibody (BioLegend) (3 μg/ml) for 3 days, after which the cells were counted and different numbers of E:T ratios were used for the assessment of cytotoxicity using 4-hr Chromium release assay (FIG. 6A and FIG. 6B). The percentage specific cytotoxicity was calculated using the following formula (% cytotoxicity=(Experimental cpm/spontaneous cpm)/(total cpm−spontaneous cpm)) and the lytic unit 30 (Lu30/10^6) was calculated by using the inverse of the number of effector cells needed to lyse 30% of tumor target cells×100. Killing per % NK cells was determined by dividing the total Lytic unit 30 by the percentage of NK cells in each sample (FIG. 6A and FIG. 6B). PBMCs (0.5×10^6 cells) obtained from the blood were treated with IL-2 (1000 U/ml) and/or anti-CD16 antibody (BioLegend) (3 μg/ml) for 24 hours, after which the supernatants were collected to measure IFN-g secretion using ELISA (BioLegend, San Diego) (FIG. 6C). ELISpot was used to determine the IFN-γ spots in PBMC (FIG. 6D), bone marrow (FIG. 6E), spleen (FIG. 6F) and CD3+ T cells (FIG. 6G).

OSCCs [2] = experiment: Cell count of viable cells (Trypan Blue, light microscope); type: cell-based, human; details: WIN 55,212-2 10-100 μM, 24 hours
Source text: The number of viable cells was counted under light microscope using Trypan Blue staining. Compiled data from three independent experiments performed as shown.
The number of viable cells was counted under light microscope using Trypan Blue staining (Sigma, MO, USA).

NK cells = experiment: NK cell cytotoxicity in humanized BLT mice (4-hr Chromium release assay); type: in vivo; details: hu-BLT mice, every 2 days for 3 weeks; WIN 55,212-2 2 mg/kg IP; IL-15 5 μg/mice IP; preliminary experiments
Method: as §1, with “PBMCs (0.5×10^6 cells) obtained from the blood were treated with IL-2 (1000 U/ml) and/or anti-CD16 antibody (BioLegend) (3 μg/ml) for 24 hours, after which the supernatants were collected to measure IFN-g secretion using ELISA (BioLegend, San Diego) (FIG. 1C). ELISpot was used to determine the IFN-γ spots in PBMC (FIG. 1D), bone marrow (FIG. 1E), spleen (FIG. 1F) and CD3+ T cells (FIG. 1G).” left out

[3] = vs untreated controls, 24 hours, up to 50 μM
[4] = WIN 55,212-2 2 mg/kg IP every 2 days, 3 weeks

CS(=O)(=O)O.Cc1c(C(=O)c2cccc3ccccc23)c2cccc3c2n1[C@H](CN1CCOCC1)CO3 [WIN 55,212-2, (R)-(+)-[2,3-Dihydro-5-methyl-3-(4-morpholinylmethyl)pyrrolo[1,2,3-de]-1,4-benzoxazin-6-yl]-1-naphthalenylmethanone mesylate]
decrease in cell surface MHC class I expression, OSCCs compared with OSCSCs (OSCCs [1]; after WIN 55,212-2 treatment): Significantly greater decrease | cell surface expression of CD44 (OSCCs [1]; [3]): Decreased expression | cell surface expression of CD54 (OSCCs [1]; [3]): Decreased expression | cell surface expression of MHC class I (OSCCs [1]; [3]): Decreased expression | cell surface expression of PD-L1 (OSCCs [1]; [3]): Decreased expression | percentages of dead cells (PI staining) (PL-12 tumor cells): up to 20% | IFN-γ immune-spots (ELISpot) in PBMCs (IFN-γ secretion; [4]): augmented | IFN-γ immune-spots (ELISpot) in bone marrow (IFN-γ secretion; [4]): augmented | IFN-γ immune-spots (ELISpot) in purified CD3+ T cells (IFN-γ secretion; [4]): augmented | IFN-γ immune-spots (ELISpot) in spleen (IFN-γ secretion; [4]): augmented | IFN-γ secretion (ELISA, PBMCs) (IFN-γ secretion; every 2 days for 3 weeks, WIN 55,212-2 2 mg/kg IP, IL-15 5 μg/mice IP): augmented IFN-γ secretion | decrease in cell numbers (OSCCs [2]): 10-25% | cytotoxic function of NK cells in PBMC (NK cells): increased the cytotoxic function of NK cells
